Assay results from the CheMixHub viscosity set.

Test: xn = mol fraction of the nth substance listed

CCOC(=O)c1ccccc1 + CCCCCCCCCCCC
101 kPa
Conditions	viscosity [mPa·s]
298.15 K, x2 = 0.031	1.896
298.15 K, x2 = 0.062	1.835
298.15 K, x2 = 0.0893	1.785
298.15 K, x2 = 0.1261	1.726
298.15 K, x2 = 0.168	1.663
298.15 K, x2 = 0.2378	1.58
298.15 K, x2 = 0.2782	1.532
298.15 K, x2 = 0.3577	1.462
298.15 K, x2 = 0.4064	1.427
298.15 K, x2 = 0.4557	1.396
298.15 K, x2 = 0.5044	1.371
298.15 K, x2 = 0.5519	1.351
298.15 K, x2 = 0.6714	1.331
298.15 K, x2 = 0.7194	1.324
298.15 K, x2 = 0.7886	1.32
298.15 K, x2 = 0.8626	1.325
298.15 K, x2 = 0.9296	1.335
308.15 K, x2 = 0.0462	1.569
308.15 K, x2 = 0.0741	1.532
308.15 K, x2 = 0.1171	1.477
308.15 K, x2 = 0.1439	1.445
308.15 K, x2 = 0.1806	1.405
308.15 K, x2 = 0.2481	1.342
308.15 K, x2 = 0.2629	1.329
308.15 K, x2 = 0.295	1.303
308.15 K, x2 = 0.3388	1.272
308.15 K, x2 = 0.3769	1.249
308.15 K, x2 = 0.4331	1.218
308.15 K, x2 = 0.4765	1.198
308.15 K, x2 = 0.527	1.178
308.15 K, x2 = 0.5759	1.163
308.15 K, x2 = 0.6373	1.149
308.15 K, x2 = 0.7278	1.138
308.15 K, x2 = 0.7527	1.136
308.15 K, x2 = 0.8209	1.134
308.15 K, x2 = 0.9374	1.142
318.15 K, x2 = 0.0278	1.314
318.15 K, x2 = 0.0571	1.276
318.15 K, x2 = 0.0872	1.241
318.15 K, x2 = 0.1222	1.203
318.15 K, x2 = 0.155	1.173
318.15 K, x2 = 0.1942	1.14
318.15 K, x2 = 0.2296	1.113
318.15 K, x2 = 0.2726	1.084
318.15 K, x2 = 0.3115	1.061
318.15 K, x2 = 0.3575	1.037
318.15 K, x2 = 0.3995	1.019
318.15 K, x2 = 0.4522	0.999
318.15 K, x2 = 0.4995	0.984
318.15 K, x2 = 0.5564	0.97
318.15 K, x2 = 0.6085	0.961
318.15 K, x2 = 0.6725	0.954
318.15 K, x2 = 0.7324	0.95
318.15 K, x2 = 0.7851	0.948
318.15 K, x2 = 0.868	0.953

CC1CCCCC1 + c1ccccc1
303.15 K, 101 kPa
Conditions	viscosity [mPa·s]
x1 = 0.203	0.5138
x1 = 0.2997	0.5057
x1 = 0.4008	0.5059
x1 = 0.5041	0.5117
x1 = 0.604	0.5205
x1 = 0.7992	0.5611
x1 = 0.9027	0.5961

CNS(C)(=O)=O + CCO
303.15 K, 101.33 kPa
Conditions	viscosity [mPa·s]
x1 = 0.1006	1.105
x1 = 0.201	1.3
x1 = 0.2995	1.58
x1 = 0.3949	1.871
x1 = 0.4923	2.303
x1 = 0.5949	2.888
x1 = 0.6892	3.612
x1 = 0.7757	4.493
x1 = 0.8905	6.09

CCCCCCCCCl + CCCCCCCCCCCC
298 K, 101.3 kPa
Conditions	viscosity [mPa·s]
x2 = 0.1064	1.143
x2 = 0.2068	1.151
x2 = 0.308	1.177
x2 = 0.4061	1.185
x2 = 0.5066	1.218
x2 = 0.6038	1.232
x2 = 0.6927	1.262
x2 = 0.7984	1.288
x2 = 0.8945	1.317

Cc1cccc([N+](=O)[O-])c1 + CC1CCCCC1
303.15 K, 101.33 kPa
Conditions	viscosity [mPa·s]
x1 = 0.202	0.77
x1 = 0.4	0.89
x1 = 0.6	1.09
x1 = 0.799	1.43
